Experiment: in vitro
Conditions: human, hela cells, % viability

SMILES | viability at 28.5 h, 10 µM [%]
CCc1c(C)nc2nnc(NC(=O)C(F)(F)F)n2c1O [CBK020762] | 102
Cc1nnc2nc(-c3cccc(Cl)c3Cl)[nH]n12 [CBK263845] | 94.2
CCCc1nc2oc3c(-c4ccccc4)c(C(=O)O)c(C)nc3c2c2c1COC(C)(C)C2 [CBK264044] | 89.2
CC1CCN(Cc2ccc(-c3cn(CC(=O)NCc4ccc(Br)cc4)cn3)cc2)CC1 [CBK165969] | 104
CC(NC1CCN(Cc2ccccc2)CC1)C12CC3CC(CC(c4ccc(Cl)cc4)(C3)C1)C2 (centres unmarked) [CBK262877] | 90.1
CC1(C)C2C(=O)C(c3ccccn3)=C(N)N2C(C)(C)C1(C)C (centres unmarked) [CBK022153] | 110
COc1c(O)ccc(/C=N/NC(=O)c2cccnc2)c1[N+](=O)[O-] [CBK262197] | 112
CCN(CC)CCCNC(=O)N1CCN(c2ccc(F)cc2)CC1 [CBK156419] | 88.6
O=C(NCc1ccc(Cl)c(Cl)c1)C1(c2ccccc2)CCCC1 [CBK149528] | 92.8
O=C(OCCN1CCOCC1)N1CCN(c2ccccc2)CC1 [CBK200242] | 90.3
COC(=O)c1ccsc1NC(=O)CN1CCN(Cc2ccc3c(c2)OCO3)CC1 [CBK267940] | 97.6
Cc1ccc(SCCN2CCN(C)CC2)cc1 [CBK269631C] | 89.2
O=C(Cc1cccs1)NCCc1c[nH]cn1 [CBK269805] | 93.2
Cc1ccc2c(CC(=O)NCCn3cncn3)coc2c1 [CBK283240] | 93.8
O=C(COc1ccc(Cl)cc1)NNC(=O)Cc1cccc2ccccc12 [CBK261693] | 91.4
NC(=S)N/N=C/c1c[nH]nc1-c1ccccc1 [CBK009705] | 96.5
CC1(C)Cc2nc3sc4c(=O)n(CC(=O)NCCc5ccccc5)cnc4c3cc2CS1 [CBK269180] | 97.8
O=C(O)c1cc(/C=C/c2ccc(Br)cc2)nc2ccccc12 [CBK299805] | 94.3
O=C(CNC(=O)C1CCCCC1)NNC(=O)c1ccccc1Br [CBK267828] | 102
O=C(CN1CCC(c2nc3ccccc3[nH]2)CC1)Nc1ccc(F)cc1 [CBK287720] | 90
O=c1[nH]c2ncc(-c3ccc(-c4ccccc4)cc3)nc2n1Cc1cccnc1 [CBK064282] | 94
Cc1noc(C)c1CC(=O)Nc1cccc(CN2CCCCCC2)c1 [CBK281407] | 105

SMILES | viability at 28.5 h, 10 µM [%]
Cc1ccc(-c2csc3ncnc(Cl)c23)cc1 [CBK287765] | 74.7
Cc1cc(C(=O)NCCn2nc(C)c(C)c2C)c2cccc(C)c2n1 [CBK281388] | 110
O=C(OCc1cc2ccccc2cn1)N1CCOCC1 [CBK200121] | 102
Cc1ccc(C(=O)NCCc2ccc(S(N)(=O)=O)cc2)c(N2CCN(C(=O)c3ccco3)CC2)n1 [CBK076345] | 89
O=C(NC(=O)C1CCN(CCc2cccc(C(F)(F)F)c2)CC1)Nc1cccc2ccccc12 [CBK035070] | 92.2
O=C(c1cc(C2CC2)on1)N1CCn2cc(C(F)(F)F)nc2C1 [CBK282425] | 85.4
COCc1cc(C[C@@H]2C[C@H](NS(C)(=O)=O)C2(C)C)no1 [CBK289252] | 92.5
Nc1ncc(-c2ccc(C(F)(F)F)cc2)c(C2CCCN(C(=O)CN3CCCC3)C2)n1 (centres unmarked) [CBK285649] | 91.6
CC(C)(C)C(=O)CN1CCC(C(=O)NC(c2ccccc2)c2ccco2)CC1 (centres unmarked) [CBK148298] | 109
CSCCOc1cc(NC(C)C)ncn1 [CBK115889] | 86.9
O=C(N[C@H]1CCN2C(=O)[C@H]3CCCN3C(=O)[C@@H]2C1)c1cccs1 [CBK289538] | 106
CC(NCC(=O)N1c2ccccc2NC(=O)CC1C)c1ccc(-c2ccccc2)cc1 (centres unmarked) [CBK295155] | 84.2
CC(=O)Nc1ccc(-c2cncc(Nc3ccc4c(c3)OC(F)(F)C(F)(F)O4)n2)cc1 [CBK065726] | 98.7
CNC(=O)c1ccc(-c2cccc(COC)c2)nc1NCC1CC1 [CBK106322] | 90.7
C=CCn1c(-c2sc(NC(=O)Cn3c(=O)n(CCC)c4ccccc43)nc2C)n[nH]c1=S [CBK297890] | 97.7
FC(F)(F)c1ccnc(OCc2cccnc2)n1 [CBK115902] | 102
COC(=O)[C@@H](C)NC(=O)[C@H]1CN(C(=O)c2cccnc2)CCN1C(=O)NC(C)C [CBK289630] | 104
O=C(NCCCNC(=O)c1ccc(Br)o1)c1ccccn1 [CBK269430] | 107
Cc1ccc(C)n1NC(=O)c1ccccc1[N+](=O)[O-] [CBK266151] | 104
O=C(c1cc(C(F)(F)F)cc(C(F)(F)F)c1)N1CCN(Cc2ccc3c(c2)OCO3)CC1 [CBK074756] | 98.2
O=C(N/N=C/c1cc2c(cc1Cl)OCO2)C(O)c1ccccc1 (centres unmarked) [CBK262177] | 112
c1ccc(C(CC2CCCCC2)NCc2cccnc2)cc1 (centres unmarked) [CBK073816] | 96.3

SMILES | viability at 28.5 h, 10 µM [%]
CN(C)c1ccccc1-c1cc(Nc2ccc(C(C)(C)C)cc2)ncn1 [CBK090872] | 95.4
CCCc1c(O)nc(SCC(=O)NCc2ccco2)[nH]c1=O [CBK073278] | 95.2
Cc1cc(NS(=O)(=O)c2ccc(Oc3ccc(-c4ccccc4)cc3)nc2)no1 [CBK295343] | 90.8
Cn1ccnc1CN1CCCC(CCC(=O)Nc2ccccc2F)C1 (centres unmarked) [CBK307462] | 92.1
Cc1ccc(C(=O)c2coc3ccc(OCC(=O)O)cc23)cc1 [CBK263084] | 86.6
Clc1cc2nc(OC3CCCNC3)c(N3CCCC3)nc2cc1Cl (centres unmarked) [CBK113454] | 108
CC(C)(C)OC(=O)N1CCC2(CC1)NC(=O)c1cc(-c3cccc4ncccc34)ccc1O2 [CBK083674] | 109
Cc1c(Cc2c(Cl)cccc2Cl)c(=O)n(C)n1C [CBK113274] | 97.2
Cn1ccnc1CCC1CCCCN1C(=O)NCc1cccc(F)c1 (centres unmarked) [CBK307124] | 93.5
CC(C)Nc1nccnc1OCCOc1cccc(O)c1 [CBK115878] | 101
FC(F)(F)c1cccc(OCCOc2ccccc2)n1 [CBK115835] | 87.7
O=C(O)COCC(=O)N1CCCC(c2nc(-c3ccccc3)c3ccccn23)C1 (centres unmarked) [CBK046806] | 86.1
O=C(CCN1C(=O)c2ccc(Br)cc2C1=O)N1CCN(Cc2ccccc2)CC1 [CBK269238] | 104
Cc1oc(C(=O)Nc2cccc(CCc3ccncc3)c2)cc1CN1CCOCC1 [CBK285547] | 92.8
CC(C)(C)c1ccccc1NC(=O)N(Cc1cc(F)cc(F)c1)CC1CCNCC1 [CBK049802] | 108
O=C(O)c1cc(NC(=O)c2ccccc2[N+](=O)[O-])cc(C(=O)O)c1 [CBK262135] | 81.1
Cc1[nH]nc(Nc2cccc(C(=O)O)c2)c1[N+](=O)[O-] [CBK262725] | 96.2
OCCOc1ccccc1N1CCOCC1 [CBK001767C] | 116
Cc1noc(C)c1CN1CCC(c2ccccc2)CC1 [CBK306001] | 89.9
COc1ccc(Cl)cc1NC(=O)CCSc1ccccc1 [CBK263969] | 85
Cc1cc(NC(=O)NC2CCSc3ccccc32)no1 (centres unmarked) [CBK259296] | 74.8
